pIC50: −log10 of the molar value.
Biological target: Mitogen-activated protein kinase 10 (Homo sapiens, UniProt P53779)
Test: Inhibition of JNK3

Sequence of Mitogen-activated protein kinase 10 (P53779 whole entry): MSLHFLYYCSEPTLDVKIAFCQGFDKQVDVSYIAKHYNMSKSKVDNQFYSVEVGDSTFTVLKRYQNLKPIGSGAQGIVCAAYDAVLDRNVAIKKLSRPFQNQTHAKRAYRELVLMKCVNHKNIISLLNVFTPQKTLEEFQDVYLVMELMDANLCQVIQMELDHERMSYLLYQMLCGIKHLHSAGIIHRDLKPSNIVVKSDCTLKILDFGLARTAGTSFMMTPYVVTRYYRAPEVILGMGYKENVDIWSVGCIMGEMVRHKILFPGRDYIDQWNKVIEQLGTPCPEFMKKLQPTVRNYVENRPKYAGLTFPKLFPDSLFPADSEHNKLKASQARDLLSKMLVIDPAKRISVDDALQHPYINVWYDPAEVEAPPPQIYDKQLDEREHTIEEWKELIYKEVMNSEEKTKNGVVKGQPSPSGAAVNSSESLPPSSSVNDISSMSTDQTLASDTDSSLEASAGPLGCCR

Compound	pIC50
CCCn1c(C2CCN(C)CC2)nc(-c2ccc(Cl)c(Cl)c2)c1-c1ccnc(NC2CC2)n1	8.80
NC1=CC=C2SN=C3c4ccccc4C(=O)C1C23 (stereo not given)	6.40
N#C/C(=C1/Nc2ccccc2S1)c1ccnc(NCCc2ccc(S(N)(=O)=O)cc2)n1	7.39
COc1ccc(CCNc2nccc(/C(C#N)=C3\Nc4ccccc4S3)n2)cc1	8.51
Oc1c2ccccc2c2c3c(cccc13)N=N2 [SP-600125]	6.72

Source: ChEMBL document CHEMBL1140628, “Assessing potency of c-Jun N-terminal kinase 3 (JNK3) inhibitors using 2D molecular descriptors and binary QSAR methodology” (Bioorg Med Chem, 2007)
